Data published in patent US11213579B2, “Vaccines with enhanced immunogenicity, low allergenicity and reactogenicity” (priority 2018, dated 2022).

Tests used:
[1] = test system: P. aeruginosa 6616; assay: Photodynamic inactivation of Pseudomonas aeruginosa, re-seeding on MHA to control inactivation; assay type: cell-based; conditions: initial dose 10 lg CFU/ml, 5 min, 500 μV/ml
[2] = test system: Newcastle disease virus (strain 2M); assay type: cell-based
[3] = photosensitizer 1 nM/L, 320 nm for flavins, 560 nm for phenothiazines and porphyrins
[4] = photosensitizer 5 nM/L, 320 nm for flavins, 560 nm for phenothiazines and porphyrins
[5] = photosensitizer 10 nM/L, 320 nm for flavins, 560 nm for phenothiazines and porphyrins
[6] = photosensitizer 20 nM/L, 320 nm for flavins, 560 nm for phenothiazines and porphyrins
[7] = photosensitizer 40 nM/L, 320 nm for flavins, 560 nm for phenothiazines and porphyrins
[8] = photosensitizer 80 nM/L, 320 nm for flavins, 560 nm for phenothiazines and porphyrins
[9] = photosensitizer 160 nM/L, 320 nm for flavins, 560 nm for phenothiazines and porphyrins
[10] = photosensitizer 320 nM/L, 320 nm for flavins, 560 nm for phenothiazines and porphyrins
[11] = photosensitizer 640 nM/L, 320 nm for flavins, 560 nm for phenothiazines and porphyrins
[12] = wavelength 180 nm, photoinactivator 40 μM/L
[13] = wavelength 220 nm, photoinactivator 40 μM/L
[14] = wavelength 260 nm, photoinactivator 40 μM/L
[15] = wavelength 320 nm, photoinactivator 40 μM/L
[16] = wavelength 360 nm, photoinactivator 40 μM/L
[17] = wavelength 400 nm, photoinactivator 40 μM/L
[18] = wavelength 440 nm, photoinactivator 40 μM/L
[19] = wavelength 480 nm, photoinactivator 40 μM/L
[20] = wavelength 520 nm, photoinactivator 40 μM/L
[21] = wavelength 560 nm, photoinactivator 40 μM/L
[22] = wavelength 600 nm, photoinactivator 40 μM/L
[23] = wavelength 640 nm, photoinactivator 40 μM/L
[24] = wavelength 680 nm, photoinactivator 40 μM/L
[25] = wavelength 720 nm, photoinactivator 40 μM/L
[26] = photosensitizer 1280 nM/L, 320 nm for flavins, 560 nm for phenothiazines and porphyrins

Compound | lg CFU/ml after treatment [1, 3] [lg CFU/ml] | lg CFU/ml after treatment [1, 4] [lg CFU/ml] | lg CFU/ml after treatment [1, 5] [lg CFU/ml] | lg CFU/ml after treatment [1, 6] [lg CFU/ml] | lg CFU/ml after treatment [1, 7] [lg CFU/ml] | lg CFU/ml after treatment [1, 8] [lg CFU/ml] | lg CFU/ml after treatment [1, 9] [lg CFU/ml] | lg CFU/ml after treatment [1, 10] [lg CFU/ml] | lg CFU/ml after treatment [1, 11] [lg CFU/ml] | lg CFU/ml after treatment [1, 12] [lg CFU/ml] | lg CFU/ml after treatment [1, 13] [lg CFU/ml] | lg CFU/ml after treatment [1, 14] [lg CFU/ml] | lg CFU/ml after treatment [1, 15] [lg CFU/ml] | lg CFU/ml after treatment [1, 16] [lg CFU/ml] | lg CFU/ml after treatment [1, 17] [lg CFU/ml] | lg CFU/ml after treatment [1, 18] [lg CFU/ml] | lg CFU/ml after treatment [1, 19] [lg CFU/ml] | lg CFU/ml after treatment [1, 20] [lg CFU/ml] | lg CFU/ml after treatment [1, 21] [lg CFU/ml] | lg CFU/ml after treatment [1, 22] [lg CFU/ml] | other results
C=Cc1c(C)c2cc3nc(c4c5[n-]c(cc6nc(cc1[n-]2)C(C)=C6CC)c(C)c5C(=O)[C@@H]4C(=O)OC)[C@@H](CCC(=O)OC/C=C(\C)CCC[C@H](C)CCC[C@H](C)CCCC(C)C)[C@@H]3C.[Mg+2] [Chlorophyll alpha (on TWEEN-80), Chlorophyll alpha] | 2 | 2 | 1 | 1 | 0 | 0 | 0 | 0 | 0 | 9 | 9 | 10 | 10 | 10 | 9 | 9 | 6 | 7 | 0 | 0 | lg CFU/ml after treatment [1, 23]: 4 lg CFU/ml; lg CFU/ml after treatment [1, 24]: 6 lg CFU/ml; lg CFU/ml after treatment [1, 25]: 9 lg CFU/ml
Cc1cc(=[N+](C)C)cc2sc3cc(N(C)C)cc(C)c3nc1-2.[Cl-] [Dimethylmethylene blue] | 2 | 1 | 1 | 1 | 0 | 0 | 0 | 0 | 0 |  |  |  |  |  |  |  |  |  |  |  | lg CFU/ml after treatment [1, 26]: 1 lg CFU/ml
C=CC1=C(C)c2cc3[n-]c(cc4[n-]c(cc5nc(cc1n2)C(C)=C5C=C)c(C)c4CCC(=O)O)c(CCC(=O)O)c3C.[Fe+2] [Heme] | 3 | 2 | 2 | 1 | 0 | 0 | 0 | 0 | 0 |  |  |  |  |  |  |  |  |  |  |  | 
CN(C)c1ccc2nc3ccc(=[N+](C)C)cc-3sc2c1 [Methylene blue] | 6 | 2 | 1 | 1 | 0 | 0 | 0 | 0 | 0 | 10 | 9 | 8 | 9 | 9 | 9 | 9 | 7 | 4 | 3 | 3 | lg CFU/ml after treatment [1, 26]: 2 lg CFU/ml; lg CFU/ml after treatment [1, 23]: 0 lg CFU/ml; lg CFU/ml after treatment [1, 24]: 0 lg CFU/ml; lg CFU/ml after treatment [1, 25]: 0 lg CFU/ml
Cc1cc2nc3c(=O)[nH]c(=O)nc-3n(C[C@H](O)[C@H](O)[C@H](O)COP(=O)(O)OP(=O)(O)OC[C@H]3O[C@@H](n4cnc5c(N)ncnc54)[C@H](O)[C@@H]3O)c2cc1C [Riboflavin dinucleotide] | 3 | 0 | 0 | 0 | 0 | 0 | 0 | 0 | 0 |  |  |  |  |  |  |  |  |  |  |  | 
Cc1cc2nc3c(=O)[nH]c(=O)nc-3n(C[C@H](O)[C@H](O)[C@H](O)COP(=O)(O)O)c2cc1C [Riboflavin mononucleotide] | 4 | 1 | 0 | 0 | 0 | 0 | 0 | 0 | 0 |  |  |  |  |  |  |  |  |  |  |  | 
Cc1cc2nc3c(=O)[nH]c(=O)nc-3n(C[C@H](O)[C@H](O)[C@H](O)CO)c2cc1C [Riboflavin] | 6 | 2 | 1 | 0 | 0 | 0 | 0 | 0 | 0 | 0 | 2 | 1 | 0 | 0 | 0 | 0 | 0 | 9 | 8 | 9 | lg CFU/ml after treatment [1, 23]: 9 lg CFU/ml; lg CFU/ml after treatment [1, 24]: 7 lg CFU/ml; lg CFU/ml after treatment [1, 25]: 6 lg CFU/ml; spectral region of highest inactivation efficiency [2]: 180-390 nm
Cc1cc2nc3ccc(N(C)C)cc3[s+]c2cc1N.[Cl-] [Toluidine Blue] | 6 | 2 | 1 | 1 | 0 | 0 | 0 | 0 | 0 |  |  |  |  |  |  |  |  |  |  |  | lg CFU/ml after treatment [1, 26]: 2 lg CFU/ml
Cyanocobalamin | 6 | 5 | 4 | 4 | 4 | 2 | 3 | 2 | 0 |  |  |  |  |  |  |  |  |  |  |  | 
